Data on 6 compounds can be found in ChEMBL document CHEMBL4400520, “Benzofuran-isatin-imine hybrids tethered via different length alkyl linkers: Design, synthesis and in vitro evaluation of anti-tubercular and anti-bacterial activities as well as cytotoxicity” (Eur J Med Chem, 2019).

In series [1] the test system is Mycobacterium tuberculosis. The series can be described thus: Antitubercular activity against Mycobacterium tuberculosis H37Rv. The series is classed as functional.
The nature of series [2]: Cytotoxicity against African green monkey Vero cells assessed as reduction in cell viability after 72 hrs by MTT assay. The conditions noted are these: chlorocebus sabaeus, Vero cells. The series is classed as cell-based.
Series [3] in a line: Selectivity index, ratio of CC50 for African green monkey Vero cells to MIC for Mycobacterium tuberculosis H37Rv. The conditions noted are these: read-out: Selectivity Index. The series is classed as toxicity.
In series [4] the test system is Staphylococcus epidermidis. Briefly: Antibacterial activity against methicillin-sensitive Staphylococcus epidermidis. In kind it is functional.
In series [5] the test system is Staphylococcus epidermidis. Briefly: Antibacterial activity against methicillin-resistant Staphylococcus epidermidis. In kind it is functional.
In series [6] the test system is Staphylococcus aureus. Briefly: Antibacterial activity against methicillin-sensitive Staphylococcus aureus. In kind it is functional.
In series [7] the test system is Staphylococcus aureus. The series can be described thus: Antibacterial activity against methicillin-resistant Staphylococcus aureus. In kind it is functional.
The test system of the next series is Enterococcus faecalis. The series can be described thus: Antibacterial activity against Enterococcus faecalis. In kind it is functional.
The next series has as its system Enterococcus faecium. The series can be described thus: Antibacterial activity against Enterococcus faecium. The series is classed as functional.
The test system of a further series is Escherichia coli. The series can be described thus: Antibacterial activity against Escherichia coli. The series is classed as functional.
The next series deals with Klebsiella pneumoniae. Briefly: Antibacterial activity against Klebsiella pneumoniae. The series is classed as functional.
For another series, the system named is Pseudomonas aeruginosa. The series can be described thus: Antibacterial activity against Pseudomonas aeruginosa ATCC 27853. The series is classed as functional.
Series [8] deals with Acinetobacter calcoaceticus. The series can be described thus: Antibacterial activity against Acinetobacter calcoaceticus. In kind it is functional.
A further series concerns Enterobacter cloacae. Briefly: Antibacterial activity against Enterobacter cloacae. In kind it is functional.
A further series concerns Klebsiella aerogenes. The series can be described thus: Antibacterial activity against Enterobacter aerogenes. In kind it is functional.
Another series has as its system Proteus mirabilis. The series can be described thus: Antibacterial activity against Proteus mirabilis. In kind it is functional.
For the next series, the system named is Citrobacter freundii. Briefly: Antibacterial activity against Citrobacter freundii. In kind it is functional.

In brackets after ≈: the same amount, converted by molar mass.

In series [1], `CCOC(=O)c1c(-c2ccc(OC)cc2)oc2ccc(OCCCCCN3C(=O)/C(=N\O)c4ccccc43)cc12` returned an MIC of 0.062 µg/mL (≈ 0.114 µM). Also, the CC50 at 72 h in series [2] was 64 µg/mL (≈ 118 µM). Moreover, the selectivity ratio in series [3] came out at 1030. The MIC90 in [4] came to 0.25 µg/mL (≈ 0.461 µM); in series [5], 4 µg/mL (≈ 7.37 µM); against Staphylococcus aureus [6], 2 µg/mL (≈ 3.69 µM); in the series with Staphylococcus aureus [7], 2 µg/mL (≈ 3.69 µM); in the series with Enterococcus faecalis, 2 µg/mL (≈ 3.69 µM); in the series on Enterococcus faecium it was 8 µg/mL (≈ 14.7 µM). Further, the MIC90 was 0.25 µg/mL (≈ 0.461 µM) against Escherichia coli; 1 µg/mL (≈ 1.84 µM) in the series with Klebsiella pneumoniae; 4 µg/mL (≈ 7.37 µM) against Pseudomonas aeruginosa; 2 µg/mL (≈ 3.69 µM) in series [8]; 1 µg/mL (≈ 1.84 µM) against Enterobacter cloacae; 0.5 µg/mL (≈ 0.922 µM) against Klebsiella aerogenes. Moreover, the MIC90 came out at 0.25 µg/mL (≈ 0.461 µM) against Proteus mirabilis and 0.5 µg/mL (≈ 0.922 µM) against Citrobacter freundii.
Consider `CCOC(=O)c1c(-c2ccc(OC)cc2)oc2ccc(OCCCCCCN3C(=O)C(=O)c4ccccc43)cc12`, for which inhibition of growth in series [1] (MIC) required 0.062 µg/mL (≈ 0.114 µM). The CC50 at 72 h in [2] turned out to be 256 µg/mL (≈ 473 µM). The selectivity ratio in [3] is 4130. Also, the MIC90 in [4] is 0.25 µg/mL (≈ 0.462 µM); in [5], 4 µg/mL (≈ 7.39 µM); in the series on Staphylococcus aureus [6], 1 µg/mL (≈ 1.85 µM); with Staphylococcus aureus [7], 1 µg/mL (≈ 1.85 µM); against Enterococcus faecalis it was 2 µg/mL (≈ 3.69 µM); with Enterococcus faecium, 8 µg/mL (≈ 14.8 µM). In addition, the MIC90 against Escherichia coli was 0.06 µg/mL (≈ 0.111 µM); in the series on Klebsiella pneumoniae, 0.5 µg/mL (≈ 0.923 µM); against Pseudomonas aeruginosa it was 4 µg/mL (≈ 7.39 µM); in [8], 2 µg/mL (≈ 3.69 µM); with Enterobacter cloacae it was 0.125 µg/mL (≈ 0.231 µM); in the series on Klebsiella aerogenes, 0.5 µg/mL (≈ 0.923 µM). Moreover, the MIC90 in the series with Proteus mirabilis is 0.125 µg/mL (≈ 0.231 µM); against Citrobacter freundii, 0.25 µg/mL (≈ 0.462 µM).
The compound `CCOC(=O)c1c(-c2ccc(OC)cc2)oc2ccc(OCCCCCN3C(=O)/C(=N\OC)c4ccccc43)cc12` showed an MIC in series [1] of 0.049 µg/mL (≈ 0.088 µM). For the same compound, the CC50 at 72 h in series [2] turned out to be 32 µg/mL (≈ 57.5 µM). In [3], the selectivity ratio was 1030. Also, the MIC90 in series [4] was 0.5 µg/mL (≈ 0.898 µM); in series [5], 4 µg/mL (≈ 7.19 µM); with Staphylococcus aureus [6], 2 µg/mL (≈ 3.59 µM); against Staphylococcus aureus [7] it was 4 µg/mL (≈ 7.19 µM); in the series on Enterococcus faecalis it was 4 µg/mL (≈ 7.19 µM); with Enterococcus faecium it was 32 µg/mL (≈ 57.5 µM). Also, the MIC90 with Escherichia coli is 0.25 µg/mL (≈ 0.449 µM); against Klebsiella pneumoniae, 2 µg/mL (≈ 3.59 µM); with Pseudomonas aeruginosa, 1 µg/mL (≈ 1.8 µM); in [8], 1 µg/mL (≈ 1.8 µM); with Enterobacter cloacae, 0.25 µg/mL (≈ 0.449 µM); against Klebsiella aerogenes, 1 µg/mL (≈ 1.8 µM). Further, the results for the MIC90 against Proteus mirabilis and in the series on Citrobacter freundii were 0.5 µg/mL (≈ 0.898 µM) and 1 µg/mL (≈ 1.8 µM), respectively.
With `CCOC(=O)c1c(-c2ccc(OC)cc2)oc2ccc(OCCCN3C(=O)/C(=N\OC)c4cc(OC)ccc43)cc12`, the MIC in series [1] was below 0.016 µg/mL. The CC50 at 72 h in [2] was found to be 128 µg/mL (≈ 229 µM). Besides, the selectivity ratio in series [3] is above 8000. In addition, the MIC90 came out at 0.25 µg/mL (≈ 0.448 µM) in series [4]; 2 µg/mL (≈ 3.58 µM) in [5]; 4 µg/mL (≈ 7.16 µM) in the series on Staphylococcus aureus [6]; 2 µg/mL (≈ 3.58 µM) in the series with Staphylococcus aureus [7]; 1 µg/mL (≈ 1.79 µM) against Enterococcus faecalis; 8 µg/mL (≈ 14.3 µM) with Enterococcus faecium. For the same compound, the MIC90 in the series with Escherichia coli is 0.25 µg/mL (≈ 0.448 µM); with Klebsiella pneumoniae it was 1 µg/mL (≈ 1.79 µM); in the series with Pseudomonas aeruginosa, 1 µg/mL (≈ 1.79 µM); in series [8] it was 4 µg/mL (≈ 7.16 µM); in the series on Enterobacter cloacae, 0.25 µg/mL (≈ 0.448 µM); in the series on Klebsiella aerogenes, 0.125 µg/mL (≈ 0.224 µM). The MIC90 against Proteus mirabilis was determined as 0.25 µg/mL (≈ 0.448 µM); with Citrobacter freundii it was 0.5 µg/mL (≈ 0.895 µM).
In series [1], `CCOC(=O)c1c(-c2ccc(OC)cc2)oc2ccc(OCCCCCCN3C(=O)/C(=N\OC)c4ccccc43)cc12` showed an MIC below 0.016 µg/mL. The half-maximal cytotoxic concentration (CC50) at 72 h in series [2] worked out at 32 µg/mL (≈ 56.1 µM). Further, the selectivity ratio in series [3] was above 2000. For the same compound, the MIC90 in series [4] was determined as 0.5 µg/mL (≈ 0.876 µM); in series [5] it was 8 µg/mL (≈ 14 µM); in the series with Staphylococcus aureus [6], 2 µg/mL (≈ 3.5 µM); in the series on Staphylococcus aureus [7], 2 µg/mL (≈ 3.5 µM); in the series with Enterococcus faecalis, 4 µg/mL (≈ 7.01 µM); against Enterococcus faecium, 16 µg/mL (≈ 28 µM). The MIC90 against Escherichia coli is 0.125 µg/mL (≈ 0.219 µM); against Klebsiella pneumoniae, 4 µg/mL (≈ 7.01 µM); in the series on Pseudomonas aeruginosa it was 2 µg/mL (≈ 3.5 µM); in series [8], 4 µg/mL (≈ 7.01 µM); in the series on Enterobacter cloacae it was 0.125 µg/mL (≈ 0.219 µM); against Klebsiella aerogenes it was 0.25 µg/mL (≈ 0.438 µM). For the same compound, the MIC90 in the series with Proteus mirabilis and in the series with Citrobacter freundii was 0.125 µg/mL (≈ 0.219 µM) throughout.
Regarding `CCO/N=C1\C(=O)N(CCCCCOc2ccc3oc(-c4ccc(OC)cc4)c(C(=O)OCC)c3c2)c2ccc(F)cc21`, inhibition of growth in series [1] (MIC) required 0.031 µg/mL (≈ 0.0527 µM). Besides, the CC50 at 72 h in series [2] was found to be 32 µg/mL (≈ 54.4 µM). Moreover, in [3], the selectivity ratio is 1030. Also, the MIC90 in [4] was 1 µg/mL (≈ 1.7 µM); in series [5], 4 µg/mL (≈ 6.8 µM); against Staphylococcus aureus [6], 8 µg/mL (≈ 13.6 µM); with Staphylococcus aureus [7] it was 4 µg/mL (≈ 6.8 µM); in the series on Enterococcus faecalis, 4 µg/mL (≈ 6.8 µM); against Enterococcus faecium, 32 µg/mL (≈ 54.4 µM). The MIC90 with Escherichia coli is 0.125 µg/mL (≈ 0.212 µM); with Klebsiella pneumoniae, 4 µg/mL (≈ 6.8 µM); against Pseudomonas aeruginosa it was 4 µg/mL (≈ 6.8 µM); in [8] it was 8 µg/mL (≈ 13.6 µM); in the series with Enterobacter cloacae, 0.25 µg/mL (≈ 0.425 µM); with Klebsiella aerogenes it was 0.5 µg/mL (≈ 0.849 µM). Moreover, the MIC90 against Proteus mirabilis is 0.25 µg/mL (≈ 0.425 µM); against Citrobacter freundii, 0.125 µg/mL (≈ 0.212 µM).
